Data set [1] can be described thus: Acute toxicity in ICR mouse model assessed as change in body weight at 25 to 100 mg/kg, IG administered for 7 days. In kind it is organism-based. The settings on record: in vivo, po, 168 h, dose 25-100 mg/kg, time 7 day.
Another data set concerns Enterococcus faecium. Briefly: Antimicrobial activity against Enterococcus faecium QF31 harboring erythromycin resistance rRNA methylase B and chloramphenicol-florfenicol resistance methylase assessed as inhibition of visible growth of bacteria incubated for 20 hrs by broth microdilution method. In kind it is functional. (In general: Broth dilution looks for growth in wells or tubes with falling amounts of substance.)

The next data set concerns Enterococcus faecalis. Briefly: Antimicrobial activity against Enterococcus faecalis ES01 harboring erythromycin-resistance rRNA methylase B and vanB-type vancomycin-resistance locus assessed as inhibition of visible growth of bacteria incubated for 20 hrs by broth microdilution method. Format: functional.
The subject of the next data set is Pseudomonas aeruginosa. Briefly: Antimicrobial activity against Pseudomonas aeruginosa PA01 assessed as inhibition of visible growth of bacteria incubated for 20 hrs by broth microdilution method. In kind it is functional.

SMILES strings stand for the structures. Converted amounts (≈) assume the structure as drawn.

As a reminder, the MIC is the lowest concentration that inhibits growth of the organism. For `CC1C/C(=C\c2ccc(-c3ccc(Cl)c(C(F)(F)F)c3)s2)c2nc3ccccc3c(C(=O)O)c2C1` (racemic), the Activity result in data set [1] is listed as “Non-toxic”. Moreover, the MIC with Enterococcus faecium was 2 mg/L (≈ 3.89 µM); in the data set with Enterococcus faecalis, 2 mg/L (≈ 3.89 µM); in the data set with Pseudomonas aeruginosa it was > 128 mg/L.

The values are drawn from ChEMBL document CHEMBL6078677, “Discovery and optimization of tetrahydroacridine derivatives as a novel class of antibiotics against multidrug-resistant Gram-positive pathogens by targeting type I signal peptidase and disrupting bacterial membrane” (Eur J Med Chem, 2025).
